pEC50, pIC50: −log10 of the molar value. Read-outs that look alike come from different tables or passages of the source. Square brackets hold non-standard residues; d marks the D form. Peptide text beside a SMILES is read from it. * marks the point of attachment. ξ: configuration not given here. Piperidin1yl(4-NH2,4-CO2Me) = COC(=O)C1(N)CCN(*)CC1; Pyrrolidinyl(3-NH2,3-CO2Me) = COC(=O)C1(N)CCN(*)C1; Pyrrolidino(3-NH2-3-COOH) = NC1(C(=O)O)CCN(*)C1; dAla(cPr) = N[C@H](CC1CC1)C(=O)O; Tic = O=C(O)[C@@H]1Cc2ccccc2CN1; dTic = O=C(O)[C@H]1Cc2ccccc2CN1; Aic = NC1(C(=O)O)Cc2ccccc2C1; ξL = CC(C)CC(N)C(=O)O
Assays:
[1] = biological target: recombinant human mu (MOR) opioid receptor (Homo sapiens (Human), UniProt P35372); experiment: Opioid receptor radioligand binding assay, MOR
[2] = biological target: recombinant human delta (DOR) opioid receptor (Homo sapiens (Human), UniProt P41143); experiment: Opioid receptor radioligand binding assay, DOR
Chain of recombinant human delta (DOR) opioid receptor (P41143 whole entry, looked up): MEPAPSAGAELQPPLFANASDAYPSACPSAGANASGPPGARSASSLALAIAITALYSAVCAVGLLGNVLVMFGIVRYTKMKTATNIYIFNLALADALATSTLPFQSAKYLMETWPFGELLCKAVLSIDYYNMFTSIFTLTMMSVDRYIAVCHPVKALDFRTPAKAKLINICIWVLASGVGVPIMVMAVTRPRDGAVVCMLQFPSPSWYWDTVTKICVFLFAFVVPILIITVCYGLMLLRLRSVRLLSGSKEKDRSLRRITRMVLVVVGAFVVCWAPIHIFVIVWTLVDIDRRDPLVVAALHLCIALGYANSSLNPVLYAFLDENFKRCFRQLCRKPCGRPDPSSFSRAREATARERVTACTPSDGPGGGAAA

[3] = biological target: recombinant human kappa (KOR) opioid receptor (Homo sapiens (Human), UniProt P41145); experiment: biochemical; format: binding; settings: HEK293 cell membranes, 0.5 nM [3H]diprenorphine
[4] = biological target: Opioid Kappa Receptor (recombinant human, HEK293 cells) (Homo sapiens (Human), UniProt P41145); experiment: cell-based; settings: read-out: EC50
[5] = HEK293 cell membranes, 0.5 nM [3H]DAMGO, read-out: MOR, IC50
[6] = HEK293 cell membranes, 0.5 nM [3H]DADLE, read-out: DOR, IC50

SMILES | pIC50 [1, 5] | pIC50 [2, 6] | pIC50 [3] | pEC50 [4] | pIC50 [1] | pIC50 [2]
CC(C)C[C@@H](NC(=O)[C@@H](Cc1ccccc1)NC(=O)[C@H](N)Cc1ccccc1)C(=O)N[C@H](CCCCN)C(=O)N1CCC2(CC1)CNC(=O)N2 [Compound 13-46] | < 5.00 | < 5.00 | 9.51 |  |  | 
CCCN(C(=O)OC)C1CCN(C(=O)[C@@H](CCCCN)NC(=O)[C@@H](CC(C)C)NC(=O)[C@@H](Cc2ccccc2)NC(=O)[C@H](N)Cc2ccccc2)CC1 [Compound 13-49] | < 5.00 | < 5.00 | 9.34 |  |  | 
CC(C)C[C@@H](NC(=O)[C@@H](Cc1ccccc1)NC(=O)[C@H](N)Cc1ccccc1)C(=O)N[C@H](CCCCN)C(=O)N1CCC(NC(=O)C(N)=O)CC1 [Compound 13-57] |  | < 5.00 |  |  |  | 
CC(C)C[C@@H](NC(=O)[C@@H](Cc1ccccc1)NC(=O)[C@H](N)Cc1ccccc1)C(=O)N[C@H](CCCCN)C(=O)N1CCC(O)(CO)CC1 [Compound 13-65] |  |  |  | 8.77 |  | 
COC(=O)C1(N)CCN(C(=O)[C@@H](CCCNC(=N)N)NC(=O)[C@H]2CCCN2C(=O)[C@@H](Cc2ccccc2)NC(=O)[C@H](N)Cc2ccccc2)CC1 [Compound 22] (H-[dF][dF][dP][dR]-{Piperidin1yl(4-NH2,4-CO2Me)}) | 5.30 | < 5.00 | 6.70 |  |  | 
COC(=O)C1(N)CCN(C(=O)[C@@H](CCCNC(=N)N)NC(=O)[C@H]2CCCN2C(=O)[C@@H](Cc2ccccc2)NC(=O)[C@H](N)Cc2ccccc2)C1 (stereo partly drawn) [Compound 28] (H-[dF][dF][dP][dR]-{Pyrrolidinyl(3-NH2,3-CO2Me)}) | < 5.00 | < 5.00 | < 6.70 |  |  | 
CCCC[C@@H](NC(=O)[C@@H](Cc1ccccc1)NC(=O)[C@H](N)Cc1ccccc1)C(=O)N[C@H](Cc1cnc(N)nc1)C(=O)N1CCC(N)(C(=O)OC)C1 (stereo partly drawn) [Compound 82] | 5.29 | < 5.00 | 7.37 |  |  | 
COC(=O)C1(N)CCN(C(=O)[C@@H](CCCCN)NC(=O)[C@H]2CCCN2C(=O)[C@@H](Cc2ccccc2)NC(=O)[C@H](N)Cc2ccccc2)CC1 [Compound 89] (H-[dF][dF][dP][dK]-{Piperidin1yl(4-NH2,4-CO2Me)}) | < 5.00 | < 5.00 | < 6.70 |  |  | 
COC(=O)C1(N)CCN(C(=O)[C@@H](CCCCN)NC(=O)[C@H]2CCCN2C(=O)[C@@H](Cc2ccccc2)NC(=O)[C@H](N)Cc2ccccc2)C1 (stereo partly drawn) [Compound 92] (H-[dF][dF][dP][dK]-{Pyrrolidinyl(3-NH2,3-CO2Me)}) | < 5.00 | < 5.00 | 7.48 |  |  | 
NCCCC[C@@H](NC(=O)[C@@H](CC1CC1)NC(=O)[C@@H](Cc1ccccc1)NC(=O)[C@H](N)Cc1ccccc1)C(=O)N1CCC(N)(C(=O)O)C1 (stereo partly drawn) [Compound 119] (H-[dF][dF][dAla(cPr)][dK]-{Pyrrolidino(3-NH2-3-COOH)}) |  |  | 8.63 | 7.64 |  | 
N=C(N)NCCC[C@@H](NC(=O)[C@@H](CC1CC1)NC(=O)[C@@H](Cc1ccccc1)NC(=O)[C@H](N)Cc1ccccc1)C(=O)N1CCC(N)(C(=O)O)C1 (stereo partly drawn) [Compound 134] (H-[dF][dF][dAla(cPr)][dR]-{Pyrrolidino(3-NH2-3-COOH)}) |  |  | 8.63 | 7.90 |  | 
COC(=O)C1(N)CCN(C(=O)[C@@H](CCCCN)NC(=O)[C@@H](CC(C)C)NC(=O)[C@@H]2Cc3ccccc3CN2C(=O)[C@H](N)Cc2ccccc2)C1 (stereo partly drawn) [Compound 146] (H-[dF][Tic][dL][dK]-{Pyrrolidinyl(3-NH2,3-CO2Me)}) | < 5.00 | < 5.00 | 6.79 |  |  | 
COC(=O)C1(N)CCN(C(=O)[C@@H](CCCCN)NC(=O)C(CC(C)C)NC(=O)[C@@H](Cc2ccccc2)NC(=O)C2(N)Cc3ccccc3C2)C1 (stereo partly drawn) [Compound 156] (H-[Aic][dF][ξL][dK]-{Pyrrolidinyl(3-NH2,3-CO2Me)}) | 5.27 | < 5.00 | 8.64 |  |  | 
COC(=O)C1(N)CCN(C(=O)[C@@H](CCCCN)NC(=O)C(CC(C)C)NC(=O)[C@@H](Cc2ccccc2)NC(=O)C2(N)Cc3ccccc3C2)CC1 (stereo partly drawn) [Compound 158] (H-[Aic][dF][ξL][dK]-{Piperidin1yl(4-NH2,4-CO2Me)}) | 5.27 | < 5.00 | 9.05 |  |  | 
COC(=O)C1(N)CCN(C(=O)[C@@H](CCCCN)NC(=O)[C@@H](CC(C)C)NC(=O)[C@@H](Cc2ccccc2)NC(=O)[C@H]2Cc3ccccc3CN2)C1 (stereo partly drawn) [Compound 168] (H-[dTic][dF][dL][dK]-{Pyrrolidinyl(3-NH2,3-CO2Me)}) |  |  | 8.37 |  | 5.62 | < 5.00
CC(C)C[C@@H](NC(=O)[C@@H](Cc1ccccc1)NC(=O)[C@H]1Cc2ccccc2CN1)C(=O)N[C@H](CCCCN)C(=O)N1CCC(N)(C(=O)O)C1 (stereo partly drawn) [Compound 169] (H-[dTic][dF][dL][dK]-{Pyrrolidino(3-NH2-3-COOH)}) |  |  |  | 6.78 |  | 
COC(=O)C1(N)CCN(C(=O)[C@@H](CCCCN)NC(=O)[C@@H](CC(C)C)NC(=O)[C@@H](Cc2ccccc2)NC(=O)[C@H](N)Cc2ccc(F)cc2)C1 (stereo partly drawn) [Compound 181] |  |  |  | 8.06 |  | 
COC(=O)C1(N)CCN(C(=O)[C@@H](CCCCN)NC(=O)[C@@H](CC(C)C)NC(=O)[C@@H](Cc2ccccc2)NC(=O)[C@H](N)Cc2ccc(F)cc2)CC1 [Compound 184] |  |  |  | 8.20 |  | 

From patent US12215173B2, “Kappa opioid receptor peptide amide ligands” (priority 2019, dated 2025)
